From the supplement of paper PMC11451515

Experiments:
Details in all cases: 48 h
SEM cells [1] = test: AUC of viability dose-response curve (% viability x log10 dose units); higher = less sensitive
Summary of the method: (§1)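 Seeding of medium-adapted leukemia cells was at 500 or 1000 cells/well in 1536-well plates, followed by 48 h at 37°C with library compounds in DMSO at 11 threefold doses from 47 μM to 0.79 nM. CellTiter-Glo One luminescence was normalised per plate to DMSO and cell-free wells and fitted as a four-parameter log-logistic function of log10 dose. Area under the curve was integrated by trapezoidal rule, with curves exceeding full viability scaled and curves failing quality control removed.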

P12-Ichikawa [2] = test: as above
Summary of the method: as §1

NOMO1 [3] = test: as above
Summary of the method: as §1

SEM cells [4] = test: cell viability relative to DMSO control; higher = less cytotoxic
Summary of the method: (§2)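 Viability was expressed as a per-plate percentage of DMSO wells, with cell-free wells as background. Leukemia cells (NOMO1 or SEM at 500 cells/well, P12-Ichikawa at 1000 cells/well) were adapted for at least four passages in each medium and seeded in 1536-well plates (5 μl). Library compounds in DMSO were pin-dosed over an 11-point threefold series from 47 μM to 0.79 nM, and CellTiter-Glo One luminescence was read after 48 h at 37°C.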

P12-Ichikawa [5] = test: as above
Summary of the method: as §2

NOMO1 [6] = test: as above
Summary of the method: as §2

O=[N+]([O-])c1ncc[nH]1
AUC of viability dose-response curve
Details	NOMO1 [3]	P12-Ichikawa [2]	SEM cells [1]
HPLM + 10% dialyzed FBS	416	418	402
RPMI 5 mM glucose + 10% FBS	402	395	444
RPMI 5 mM glucose + 10% dialyzed FBS	400	414	459

cell viability [%]
Details	NOMO1 [6]	P12-Ichikawa [5]	SEM cells [4]
HPLM + 10% dialyzed FBS, 0.000781 µM	90.7	93.7	86
HPLM + 10% dialyzed FBS, 0.00234 µM	84.4	88	88.2
HPLM + 10% dialyzed FBS, 0.00702 µM	90.2	88.2	99.9
HPLM + 10% dialyzed FBS, 0.0211 µM	78.4	83.4	93.1
HPLM + 10% dialyzed FBS, 0.0632 µM	91	97	74.6
HPLM + 10% dialyzed FBS, 0.19 µM	97.4	102	88
HPLM + 10% dialyzed FBS, 0.569 µM	89.7	88.4	76.1
HPLM + 10% dialyzed FBS, 1.71 µM	89.4	81	84
HPLM + 10% dialyzed FBS, 5.12 µM	80.8	84.5	89.3
HPLM + 10% dialyzed FBS, 15.4 µM	91.7	75.4	79.9
HPLM + 10% dialyzed FBS, 46.1 µM	75.8	80.5	55.1
RPMI 5 mM glucose + 10% FBS, 0.000781 µM	86.3	88	98.2
RPMI 5 mM glucose + 10% FBS, 0.00234 µM	85.5	91	91.2
RPMI 5 mM glucose + 10% FBS, 0.00702 µM	90.9	84.6	94.5
RPMI 5 mM glucose + 10% FBS, 0.0211 µM	84.2	84.8	113
RPMI 5 mM glucose + 10% FBS, 0.0632 µM	90.9	91.6	94.9
RPMI 5 mM glucose + 10% FBS, 0.19 µM	87.3	86.9	93.5
RPMI 5 mM glucose + 10% FBS, 0.569 µM	84.1	78	87.2
RPMI 5 mM glucose + 10% FBS, 1.71 µM	76.9	74.1	81.3
RPMI 5 mM glucose + 10% FBS, 5.12 µM	80.3	81	93.9
RPMI 5 mM glucose + 10% FBS, 15.4 µM	85.7	70.5	100
RPMI 5 mM glucose + 10% FBS, 46.1 µM	74	78.8	74.3
RPMI 5 mM glucose + 10% dialyzed FBS, 0.000781 µM	88.5	88.7	108
RPMI 5 mM glucose + 10% dialyzed FBS, 0.00234 µM	93.7	86.1	97.4
RPMI 5 mM glucose + 10% dialyzed FBS, 0.00702 µM	88.7	82.7	101
RPMI 5 mM glucose + 10% dialyzed FBS, 0.0211 µM	87.2	98.4	101
RPMI 5 mM glucose + 10% dialyzed FBS, 0.0632 µM	75.8	104	90.4
RPMI 5 mM glucose + 10% dialyzed FBS, 0.19 µM	82.5	99.9	93.7
RPMI 5 mM glucose + 10% dialyzed FBS, 0.569 µM	78.6	65.7	94.8
RPMI 5 mM glucose + 10% dialyzed FBS, 1.71 µM	81	78	85.8
RPMI 5 mM glucose + 10% dialyzed FBS, 5.12 µM	83.2	98	108
RPMI 5 mM glucose + 10% dialyzed FBS, 15.4 µM	76.1	71	106
RPMI 5 mM glucose + 10% dialyzed FBS, 46.1 µM	87.7	80.5	49.8

Cc1ccc([N+](=O)[O-])cc1[S+](=O)([O-])N(C)/N=C/c1cnc2ccc(Br)cn12
AUC of viability dose-response curve
Details	NOMO1 [3]	P12-Ichikawa [2]	SEM cells [1]
HPLM + 10% dialyzed FBS	196	250	203
RPMI 5 mM glucose + 10% FBS	223	240	207
RPMI 5 mM glucose + 10% dialyzed FBS	217	244	222

cell viability [%]
Details	NOMO1 [6]	P12-Ichikawa [5]	SEM cells [4]
HPLM + 10% dialyzed FBS, 0.000781 µM	110	120	106
HPLM + 10% dialyzed FBS, 0.00234 µM	116	110	118
HPLM + 10% dialyzed FBS, 0.00702 µM	107	113	96.1
HPLM + 10% dialyzed FBS, 0.0211 µM	89.8	118	75.7
HPLM + 10% dialyzed FBS, 0.0632 µM	56.5	108	74.5
HPLM + 10% dialyzed FBS, 0.19 µM	12	50.1	13.9
HPLM + 10% dialyzed FBS, 0.569 µM	6.54	20.2	8.58
HPLM + 10% dialyzed FBS, 1.71 µM	5.77	7.63	5.5
HPLM + 10% dialyzed FBS, 5.12 µM	4.83	9.25	5.52
HPLM + 10% dialyzed FBS, 15.4 µM	4.05	9.2	4.94
HPLM + 10% dialyzed FBS, 46.1 µM	3.68	4.27	4.47
RPMI 5 mM glucose + 10% FBS, 0.000781 µM	121	114	–
RPMI 5 mM glucose + 10% FBS, 0.00234 µM	105	106	–
RPMI 5 mM glucose + 10% FBS, 0.00702 µM	95.9	112	–
RPMI 5 mM glucose + 10% FBS, 0.0211 µM	98.7	113	–
RPMI 5 mM glucose + 10% FBS, 0.0632 µM	84.6	95.6	–
RPMI 5 mM glucose + 10% FBS, 0.19 µM	17.3	40.9	–
RPMI 5 mM glucose + 10% FBS, 0.569 µM	7.83	15.2	–
RPMI 5 mM glucose + 10% FBS, 1.71 µM	5.79	5.49	–
RPMI 5 mM glucose + 10% FBS, 5.12 µM	5.05	6.55	–
RPMI 5 mM glucose + 10% FBS, 15.4 µM	4.32	8.88	–
RPMI 5 mM glucose + 10% FBS, 46.1 µM	4.08	3.76	–
RPMI 5 mM glucose + 10% dialyzed FBS, 0.000781 µM	102	119	112
RPMI 5 mM glucose + 10% dialyzed FBS, 0.00234 µM	93.9	122	99.8
RPMI 5 mM glucose + 10% dialyzed FBS, 0.00702 µM	100	111	92.9
RPMI 5 mM glucose + 10% dialyzed FBS, 0.0211 µM	94.2	115	95.3
RPMI 5 mM glucose + 10% dialyzed FBS, 0.0632 µM	76.1	91.3	77.1
RPMI 5 mM glucose + 10% dialyzed FBS, 0.19 µM	19.2	51	19.8
RPMI 5 mM glucose + 10% dialyzed FBS, 0.569 µM	5.29	24.6	6.67
RPMI 5 mM glucose + 10% dialyzed FBS, 1.71 µM	4.54	9.55	5.43
RPMI 5 mM glucose + 10% dialyzed FBS, 5.12 µM	4.24	10.3	4.76
RPMI 5 mM glucose + 10% dialyzed FBS, 15.4 µM	4	12.4	4.76
RPMI 5 mM glucose + 10% dialyzed FBS, 46.1 µM	2.94	5.41	3.83
